Assay results taken from article PMC10046961, “High-Throughput Screening Assay for Detecting Drug-Induced Changes in Synchronized Neuronal Oscillations and Potential Seizure Risk Based on Ca^2+ Fluorescence Measurements in Human Induced Pluripotent Stem Cell (hiPSC)-Derived Neuronal 2D and 3D Cultures” (Cells, 2023).
Where two headings read alike, the source gives them in different places. Marks after values point to notes of the source that are not given here.

How the values were obtained:
[1] = test system: hiPSC-derived neurons co-cultured with human primary astrocytes in 2D; experiment: Ca2+ transient oscillation assay (FDSS), 2D co-culture; format: cell-based; settings: for effect on peak number / Ca2+ neuronal oscillations, in words: 2D format; for activation at 0.04 µM / activation at 0.11 µM / activation at 0.33 µM / activation at 1 µM / activation at 3.7 µM / activation at 11.11 µM / activation at 33.33 µM / activation at 100 µM: Homo sapiens, 1 h, 60 min
Method in brief: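 hiPSC-derived excitatory neurons (CW50065, Quick-Neuron EX-SeV) co-cultured with human primary astrocytes at 4:1 (10,000:2500 cells per well). Cal-520-loaded cells in HBSS with 2 mM CaCl2 and 10 mM HEPES were pretreated with 0.04% DMSO.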

[2] = test system: hiPSC-derived neurons co-cultured with human primary astrocytes in 3D; experiment: Ca2+ transient oscillation assay (FDSS), 3D spheroids; format: cell-based; settings: 60 min
Method in brief: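 Fura-2 fluorescence was read twice for 20 min each: a baseline 10 min after 0.04% DMSO, and again 60 min after compound addition at nominal final concentration. The 3D co-cultures (1:1 hiPSC neurons from a donor and human astrocytes, 8000 each) matured 5 weeks in BrainPhys medium after a 1-week differentiation.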

[3] = ref PharmaPendium, cited from earlier work
[4] = read-out: Area under the curve - 2D Mean
[5] = read-out: Peak amplitude - 2D Mean
[6] = read-out: Peak-to-peak interval - 2D Mean
[7] = Table 1, peak plasma concentration in men, free therapeutic Cmax
[8] = Table 2, highest plasma concentration in humans after the therapeutic dose

CN1CCN(C2=Nc3cc(Cl)ccc3Nc3ccccc32)CC1 [Clozapine]
effect on peak number / Ca2+ neuronal oscillations, in words [1]: significantly increased peak number | activation at 0.04 µM [1, 4]: 28.5% | activation at 0.04 µM ([1]; read-out: Peak Number—2D Mean): 15.3% | activation at 0.04 µM [1, 5]: 12.5% | activation at 0.04 µM ([1]; read-out: Peak width - 2D Mean): 20.8% | activation at 0.04 µM [1, 6]: 1.2% | activation at 0.11 µM [1, 4]: 49% | activation at 0.11 µM ([1]; read-out: Peak Number—2D Mean): 24.2% | activation at 0.11 µM [1, 5]: 16.7% | activation at 0.11 µM ([1]; read-out: Peak width - 2D Mean): 35.5% | activation at 0.11 µM [1, 6]: -15.5% | activation at 0.33 µM [1, 4]: 28.8% | activation at 0.33 µM ([1]; read-out: Peak Number—2D Mean): -15% | activation at 0.33 µM [1, 5]: 9.4% | activation at 0.33 µM ([1]; read-out: Peak width - 2D Mean): 22.8% | activation at 0.33 µM [1, 6]: 82% | activation at 1 µM [1, 4]: 10.8% | activation at 1 µM ([1]; read-out: Peak Number—2D Mean): -8.3% | activation at 1 µM [1, 5]: 1% | activation at 1 µM ([1]; read-out: Peak width - 2D Mean): 11% | activation at 1 µM [1, 6]: 2.7% | Area under the curve - 3D Mean ([2]; 0.04 µM): 150.1 % change from baseline | Peak Number—3D Mean ([2]; 0.04 µM): 11.1 % change from baseline | Peak amplitude - 3D Mean ([2]; 0.04 µM): 133.6 % change from baseline | Peak width - 3D Mean ([2]; 0.04 µM): 6.2 % change from baseline | Peak-to-peak interval - 3D Mean ([2]; 0.04 µM): 4.5 % change from baseline | Area under the curve - 3D Mean ([2]; 0.11 µM): 153.9 % change from baseline | Peak Number—3D Mean ([2]; 0.11 µM): −10.0 % change from baseline | Peak amplitude - 3D Mean ([2]; 0.11 µM): 130.9 % change from baseline | Peak width - 3D Mean ([2]; 0.11 µM): 8.6 % change from baseline | Peak-to-peak interval - 3D Mean ([2]; 0.11 µM): 19.2 % change from baseline | Area under the curve - 3D Mean ([2]; 0.33 µM): 163.3 % change from baseline | Peak Number—3D Mean ([2]; 0.33 µM): −2.8 % change from baseline | Peak amplitude - 3D Mean ([2]; 0.33 µM): 129.8 % change from baseline | Peak width - 3D Mean ([2]; 0.33 µM): 14.0 % change from baseline | Peak-to-peak interval - 3D Mean ([2]; 0.33 µM): 5.6 % change from baseline | Area under the curve - 3D Mean ([2]; 1 µM): 182.8 % change from baseline | Peak Number—3D Mean ([2]; 1 µM): −13.9 % change from baseline | Peak amplitude - 3D Mean ([2]; 1 µM): 129.4 % change from baseline | Peak width - 3D Mean ([2]; 1 µM): 22.6 % change from baseline | Peak-to-peak interval - 3D Mean ([2]; 1 µM): 14.2 % change from baseline | Free Cmax [3, 7]: 0.3 µM | Free Cmax [3, 8]: 0.3 µM

NS(=O)(=O)c1cc2c(cc1Cl)NC(C1CC3C=CC1C3)NS2(=O)=O (centres unmarked) [Cyclothiazide]
effect on peak number / Ca2+ neuronal oscillations, in words [1]: significantly increased peak number | activation at 3.7 µM [1, 4]: 48% | activation at 3.7 µM ([1]; read-out: Peak Number—2D Mean): 2.7% | activation at 3.7 µM [1, 5]: 12.3% | activation at 3.7 µM ([1]; read-out: Peak width - 2D Mean): 50.8% | activation at 3.7 µM [1, 6]: 9.2% | activation at 11.11 µM [1, 4]: 18.7% | activation at 11.11 µM ([1]; read-out: Peak Number—2D Mean): 178% | activation at 11.11 µM [1, 5]: -0.5% | activation at 11.11 µM ([1]; read-out: Peak width - 2D Mean): 24.5% | activation at 11.11 µM [1, 6]: -53.3% | activation at 33.33 µM [1, 4]: -9.3% | activation at 33.33 µM ([1]; read-out: Peak Number—2D Mean): -25.2% | activation at 33.33 µM [1, 5]: -24% | activation at 33.33 µM ([1]; read-out: Peak width - 2D Mean): 208% | activation at 33.33 µM [1, 6]: 0.3% | activation at 100 µM [1, 4]: -53.8% | activation at 100 µM ([1]; read-out: Peak Number—2D Mean): -82% | activation at 100 µM [1, 5]: -72.8% | activation at 100 µM ([1]; read-out: Peak width - 2D Mean): -17.3% | activation at 100 µM [1, 6]: -70.3% | Area under the curve - 3D Mean ([2]; 3.7 µM): 135.8 % change from baseline | Peak Number—3D Mean ([2]; 3.7 µM): 0.0 % change from baseline | Peak amplitude - 3D Mean ([2]; 3.7 µM): 126.0 % change from baseline | Peak width - 3D Mean ([2]; 3.7 µM): 0.7 % change from baseline | Peak-to-peak interval - 3D Mean ([2]; 3.7 µM): 6.7 % change from baseline | Area under the curve - 3D Mean ([2]; 11.11 µM): 187.3 % change from baseline | Peak Number—3D Mean ([2]; 11.11 µM): 21.5 % change from baseline | Peak amplitude - 3D Mean ([2]; 11.11 µM): 139.0 % change from baseline | Peak width - 3D Mean ([2]; 11.11 µM): 23.6 % change from baseline | Peak-to-peak interval - 3D Mean ([2]; 11.11 µM): −14.5 % change from baseline | Area under the curve - 3D Mean ([2]; 33.33 µM): 245.1 % change from baseline | Peak Number—3D Mean ([2]; 33.33 µM): 63.6 * % change from baseline | Peak amplitude - 3D Mean ([2]; 33.33 µM): 113.7 % change from baseline | Peak width - 3D Mean ([2]; 33.33 µM): 64.7 % change from baseline | Peak-to-peak interval - 3D Mean ([2]; 33.33 µM): −30.0 % change from baseline | Area under the curve - 3D Mean ([2]; 100 µM): 204.6 % change from baseline | Peak Number—3D Mean ([2]; 100 µM): 102.9 ** % change from baseline | Peak amplitude - 3D Mean ([2]; 100 µM): 83.6 % change from baseline | Peak width - 3D Mean ([2]; 100 µM): 80.0 % change from baseline | Peak-to-peak interval - 3D Mean ([2]; 100 µM): −49.3 % change from baseline | Free Cmax [3, 7]: 30 µM | Free Cmax [3, 8]: 30 µM
